Paper PMC10615177 (ACS infectious diseases, 2023)
Values after ≈ are worked out from the molar mass of the structure shown. Like-named read-outs stand apart in the source and are kept apart here.

Key:
[1] = test system: T. cruzi Dm28c intracellular amastigotes; assay: T. cruzi intracellular amastigote inhibition; format: cell-based, Trypanosoma cruzi; settings: Trypanosoma cruzi, U2OS, read-out: T. cruzi IC50 (PAR)
E. coli = E. coli growth inhibition; format: cell-based, Escherichia coli
[2] = test system: L. donovani promastigotes; assay: L. donovani promastigote growth inhibition; format: cell-based, Leishmania donovani; settings: Leishmania donovani, read-out: L. donovani IC50
Bacillus subtilis = assay: B. subtilis growth inhibition; format: cell-based; settings: Bacillus subtilis, read-out: Bs IC50
M. tuberculosis HN878 = M. tuberculosis HN878 growth inhibition; format: cell-based, Mycobacterium tuberculosis; settings: Mycobacterium tuberculosis; for IC50: HN878, read-out: Mtb HN878 IC50, dose-response curves; for MIC: HN878, read-out: Mtb HN878 MIC
M. smegmatis = M. smegmatis cell growth inhibition; format: cell-based, Mycobacterium smegmatis
M. tuberculosis Erdman = M. tuberculosis Erdman growth inhibition; format: cell-based, Mycobacterium tuberculosis; settings: Mycobacterium tuberculosis, ERDMAN, read-out: Mtb Erdman MIC
M. tuberculosis H37Rv = M. tuberculosis H37Rv growth inhibition; format: cell-based, Mycobacterium tuberculosis; settings: Mycobacterium tuberculosis, H37RV, read-out: Mtb H37Rv MIC
in vitro [3] = settings: human
[4] = test system: T. brucei bloodstream forms; assay: T. brucei bloodstream form growth inhibition; format: cell-based, Trypanosoma brucei; settings: Trypanosoma brucei, read-out: T. brucei IC50
[5] = test system: T. cruzi Dm28c epimastigotes; assay: T. cruzi epimastigote growth inhibition; format: cell-based, Trypanosoma cruzi; settings: Trypanosoma cruzi, read-out: T. cruzi IC50 (EPI)
[6] = test system: L. mexicana promastigotes; assay: L. mexicana promastigote growth inhibition; format: cell-based, Leishmania mexicana; settings: Leishmania mexicana, read-out: L. mexicana IC50, promastigotes
[7] = test system: Plasmodium falciparum asexual blood stages; assay: P. falciparum asexual blood stage; format: cell-based; settings: Plasmodium falciparum, read-out: PfABS IC50 (μM ± S.E.), asexual blood stages
in vitro [8] = settings: human; remark: listed apart in the source
[9] = target: M. tuberculosis MmpL3 (MtMmpL3) (Mycobacterium tuberculosis, UniProt P9WJV5); assay: Surface plasmon resonance binding to MmpL3
[10] = test system: M. abscessus smooth variant; assay: microbe, parasite or virus in culture; format: cell-based
[11] = test system: M. abscessus rough variant; assay: microbe, parasite or virus in culture; format: cell-based
[12] = Mycolicibacterium smegmatis, read-out: Ms IC50, M. smegmatis

Chain of M. tuberculosis MmpL3 (MtMmpL3) (P9WJV5 whole entry): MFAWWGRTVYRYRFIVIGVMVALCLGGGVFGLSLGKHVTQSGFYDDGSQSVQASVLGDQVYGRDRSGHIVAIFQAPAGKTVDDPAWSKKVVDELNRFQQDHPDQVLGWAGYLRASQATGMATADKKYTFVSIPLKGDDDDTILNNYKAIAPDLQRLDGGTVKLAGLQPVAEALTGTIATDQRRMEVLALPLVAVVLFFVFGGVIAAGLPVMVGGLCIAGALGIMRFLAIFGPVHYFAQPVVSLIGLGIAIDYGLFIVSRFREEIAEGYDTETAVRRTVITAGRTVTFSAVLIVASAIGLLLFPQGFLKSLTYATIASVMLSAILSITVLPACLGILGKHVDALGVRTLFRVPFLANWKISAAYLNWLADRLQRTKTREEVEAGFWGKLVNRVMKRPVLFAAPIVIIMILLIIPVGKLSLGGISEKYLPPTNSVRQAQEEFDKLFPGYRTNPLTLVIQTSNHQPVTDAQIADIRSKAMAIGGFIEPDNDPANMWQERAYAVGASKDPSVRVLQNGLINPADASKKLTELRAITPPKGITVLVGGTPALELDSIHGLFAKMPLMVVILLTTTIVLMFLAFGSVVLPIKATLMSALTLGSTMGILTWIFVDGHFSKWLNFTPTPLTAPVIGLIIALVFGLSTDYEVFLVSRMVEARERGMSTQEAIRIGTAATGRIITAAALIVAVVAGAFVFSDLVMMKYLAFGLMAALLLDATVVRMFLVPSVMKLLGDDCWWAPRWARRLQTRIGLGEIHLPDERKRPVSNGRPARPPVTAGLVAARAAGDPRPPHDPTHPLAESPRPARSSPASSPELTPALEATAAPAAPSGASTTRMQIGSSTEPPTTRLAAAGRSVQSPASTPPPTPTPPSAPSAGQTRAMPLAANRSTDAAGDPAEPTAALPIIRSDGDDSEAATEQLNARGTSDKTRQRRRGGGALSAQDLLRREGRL

Row | Structure (SMILES) | IC50 [1] [µM] | Ec IC50 (E. coli) | IC50 [2] [µM] | IC50 (Bacillus subtilis) [µM] | IC50 (M. tuberculosis HN878) [µM] | MIC (M. tuberculosis HN878) [µM] | IC50 (M. smegmatis; [12]) [µM] | MIC (M. tuberculosis Erdman) [µM] | MIC (M. tuberculosis H37Rv) [µM] | CC50 (in vitro [3]) [µM] | IC50 [4] [µM] | IC50 [5] [µM] | also measured
1 | CCCCC1(NC(=O)CNCC=C(C)CCC=C(C)C)C2CC3CC(C2)CC1C3 (centres unmarked) [Compound 7e, 2-((3,7-Dimethylocta-2,6-dien-1-yl)amino)-N-(2-butyladamantan-2-yl)acetamide] | 8.8 ± 1.3 | No inhibition | 25 ± 14 | 2.8 | 13 ± 0.3 | 12.5 (≈ 5.01 µg/mL) | 17 | 15 (≈ 6.01 µg/mL) | 15 (≈ 6.01 µg/mL) | 15 ± 0.5 | 3 ± 0.2 | 48 ± 0.07 | 
2 | CC(C)=CCCC(C)=CCNCC(=O)NC1(c2ccccc2)C2CC3CC(C2)CC1C3 (centres unmarked) [Compound 7h, 2-((3,7-Dimethylocta-2,6-dien-1-yl)amino)-N-(2-phenyladamantan-2-yl)acetamide] | 3.4 ± 0.2 | No inhibition | 26 ± 28 | 4.5 |  |  | 26 | 38 (≈ 16 µg/mL) | 38 (≈ 16 µg/mL) | 7 ± 0.4 | 4.1 ± 0.6 | 18 ± 2 | 
3 | CC(C)=CCCC(C)=CCNCC(=O)NC1(Cc2ccccc2)C2CC3CC(C2)CC1C3 (centres unmarked) [Compound 7g, 2-((3,7-Dimethylocta-2,6-dien-1-yl)amino)-N-(2-benzyladamantan-2-yl)acetamide] | 2.9 ± 0.3 | No inhibition | 27 ± 0.8 | 2.3 |  |  | 17 | 29 (≈ 12.6 µg/mL) | 29 (≈ 12.6 µg/mL) | 7 ± 0.2 | 5.6 ± 1 | 17 ± 4 | 
4 | CC(C)=CCCC(C)=CCNC(=O)CNC(C)(C)C12CC3CC(CC(C3)C1)C2 [Compound 15, 2-((2-(Adamantan-1-yl)propan-2-yl)amino)-N-(3,7-dimethylocta-2,6-dien-1-yl)acetamide] | 2.6 ± 0.1 | No inhibition | 12 ± 8 |  | 17 ± 6 | 12.5 (≈ 4.83 µg/mL) | 31 ± 3 | 38 (≈ 14.7 µg/mL) | 38 (≈ 14.7 µg/mL) | 7.1 ± 0.5 | 5.9 ± 0.1 | 15 ± 3 | IC50 [6]: 5 ± 0.1 µM; IC50 [7]: 5.44 ± 0.32 µM; viability at 2 µM (in vitro [8]): 91%; viability at 20 µM (in vitro [8]): 76%
5 | CCC1(NC(=O)CNCC=C(C)CCC=C(C)C)C2CC3CC(C2)CC1C3 (centres unmarked) [Compound 7c, 2-((3,7-Dimethylocta-2,6-dien-1-yl)amino)-N-(2-ethyladamantan-2-yl)acetamide] | 3.2 ± 0.2 | No inhibition | 44 ± 11 | 1.9 | 6.6 ± 0.2 | 6.25 (≈ 2.33 µg/mL) | 7.7 | 16 (≈ 5.96 µg/mL) | 16 (≈ 5.96 µg/mL) | 7.5 ± 0.6 | 3.9 ± 0.3 | 14 ± 0.04 | 
6 | CC(C)=CCCC(C)=CCNCC(=O)NC(C)(C)C12CC3CC(CC(C3)C1)C2 [Compound 11, N-(2-(adamantan-1-yl)propan-2-yl)-2-((3,7-dimethylocta-2,6-dien-1-yl)amino)acetamide] | 4.4 ± 0.3 | No inhibition | 5 ± 0.6 |  | 13 ± 2 | 12.5 (≈ 4.83 µg/mL) | 44 ± 4 | 19 (≈ 7.35 µg/mL) | 19 (≈ 7.35 µg/mL) | 6.9 ± 0.1 | 6.2 ± 0.2 | 16 ± 4 | IC50 [6]: 5.2 ± 0.2 µM; IC50 [7]: 7.63 ± 1.13 µM; viability at 20 µM (in vitro [8]): 100%
7 | CC(C)=CCCC(C)=CCNCCNC1(c2ncc(-c3ccccc3)s2)C2CC3CC(C2)CC1C3 (centres unmarked) [Compound 8i, N-(3,7-dimethylocta-2,6-dien-1-yl)-N´-(2-(5-phenylthiazol-2-yl)adamantan-2-yl)ethane-1,2-diamine] |  |  |  |  |  |  |  |  |  |  |  |  | koff ([9]; 1:1 Langmuir binding model): 0.4902 s⁻¹; Kd ([9]; read-out: KD, 1:1 model, 1:1 binding model, from ratio of rate constants): 87 µM; Kd ([9]; read-out: KD, 2-state, two-state model, from rate constants): 91 µM; ka1 ([9]; two-state model): 3946 M⁻¹ s⁻¹; ka2 ([9]; two-state model): 0.006253 s⁻¹; kd1 ([9]; two-state model): 0.434 s⁻¹; kd2 ([9]; two-state model): 0.03057 s⁻¹; Ma(S) MIC [10]: 21.5 µM; IC50 (M. smegmatis; read-out: Ms IC50, M. smegmatis): 21 µM; Ma(R) MIC [11]: 21.5 µM
